In patent publication US8664203B2, “Thiazole derivatives and their use as P2Y12 receptor antagonists” (Actelion Pharmaceuticals Ltd., priority 2009, dated 2014):

Each molecule was assayed against T1, human P2Y12 receptor (Homo sapiens, UniProt Q9H244) (assay: P2Y12 receptor binding assay). Conditions: CHO cells with recombinant expression of the human P2Y12 receptor; tritium-labeled 2-methyl-S-ADP; RT, 2 hours.
T1 construct: expressed in transfected cells; host or cells: CHO cells
T1 sequence (Q9H244 whole entry): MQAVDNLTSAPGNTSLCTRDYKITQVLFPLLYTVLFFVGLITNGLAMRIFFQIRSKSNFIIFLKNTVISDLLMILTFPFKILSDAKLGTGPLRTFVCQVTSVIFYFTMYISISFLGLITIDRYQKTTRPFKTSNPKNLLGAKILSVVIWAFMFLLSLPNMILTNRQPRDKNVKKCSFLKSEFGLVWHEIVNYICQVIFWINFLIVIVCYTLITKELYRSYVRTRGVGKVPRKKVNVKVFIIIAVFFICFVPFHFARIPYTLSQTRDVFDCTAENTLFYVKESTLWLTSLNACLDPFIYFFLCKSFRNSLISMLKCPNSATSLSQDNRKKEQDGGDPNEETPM
Experimental: P2Y12 Receptor Binding Assay
Chinese Hamster Ovary (CHO) cells with recombinant expression of the human P2Y12 receptor were cultured in 24 well cell-culture plates. Cells were washed three times with binding buffer (50 mM Tris pH 7.4, 100 mM NaCl, 1 mM EDTA, 0.5% BSA). The cells were then incubated with 0.5 ml per well binding buffer containing tritium-labeled 2-methyl-thio-adenosine 5′-diphosphate (2-methyl-S-ADP) (between 100′000 and 300′000 dpm per well) and various concentrations of test compounds. After incubation at RT for 2 hours, cells were washed three times with binding buffer. Then, cells were solubilized by addition of 0.5 ml solubilization buffer (SDS, NaOH, EDTA). The content of each well was then transferred into beta-counter vials and 2.0 ml of Ultima Gold Scintillation liquid was added.
CCCCOC(=O)N1CCN(C(=O)[C@H](CP(=O)(O)O)NC(=O)c2csc(-c3ccc(F)cc3)n2)CC1 [Example 41, 4-((R)-2-{[2-(4-Fluoro-phenyl)-thiazole-4-carbonyl]-amino}-3-phosphono-propionyl)-piperazine-1-carboxylic acid butyl ester] showed an IC50 of 6 nM.
Molecule CCCCOC(=O)N1CCN(C(=O)[C@H](CO)NC(=O)c2nc(-c3ccccc3)sc2/C=C/C(=O)O)CC1 [Example 39, 4-((S)-2-{[5-((E)-2-Carboxy-vinyl)-2-phenyl-thiazole-4-carbonyl]-amino}-3-hydroxy-propionyl)-piperazine-1-carboxylic acid butyl ester] has an IC50 of 35 nM.
Molecule CCCCOC(=O)N1CCN(C(=O)[C@H](CCC(=O)O)NC(=O)c2nc(-c3ccccc3)sc2CCCOC)CC1 [Example 22, 4-((S)-4-Carboxy-2-{[5-(3-methoxy-propyl)-2-phenyl-thiazole-4-carbonyl]-amino}-butyryl)-piperazine-1-carboxylic acid butyl ester] has an IC50 of 28 nM.
In the case of CCCCOC(=O)N1CCN(C(=O)[C@H](CCC(=O)O)NC(=O)c2nc(-c3ccccc3)sc2N2CCOCC2)CC1 [Example 23, 4-{(S)-4-Carboxy-2-[(5-morpholin-4-yl-2-phenyl-thiazole-4-carbonyl)-amino]-butyryl}-piperazine-1-carboxylic acid butyl ester], the IC50 is reported as 39 nM.
Molecule CCCCOC(=O)N1CCN(C(=O)CNC(=O)c2csc(-c3ccccc3)n2)CC1 [Example 26, 4-{2-[(2-Phenyl-thiazole-4-carbonyl)-amino]-acetyl}-piperazine-1-carboxylic acid butyl ester] has an IC50 of 94 nM.
CCCCCCN(C)c1sc(C(=O)NCC(=O)N2CCN(C(=O)OCCCC)CC2)nc1-c1ccccc1 [Example 60, 4-(2-{[5-(Hexyl-methyl-amino)-4-phenyl-thiazole-2-carbonyl]-amino}-acetyl)-piperazine-1-carboxylic acid butyl ester] gave an IC50 of 1560 nM.
For CCCCOC(=O)N1CCN(C(=O)[C@H](CCC(=O)O)NC(=O)c2nc(-c3ccccc3)sc2-c2ccccc2)CC1 [Example 17, 4-{(S)-4-Carboxy-2-[(2,5-diphenyl-thiazole-4-carbonyl)-amino]-butyryl}-piperazine-1-carboxylic acid butyl ester], the IC50 was 43 nM.
CCCCOC(=O)N1CCN(C(=O)[C@H](CO)NC(=O)c2nc(-c3ccccc3)sc2CCC(=O)O)CC1 [Example 40, 4-((S)-2-{[5-(2-Carboxy-ethyl)-2-phenyl-thiazole-4-carbonyl]-amino}-3-hydroxy-propionyl)-piperazine-1-carboxylic acid butyl ester] showed an IC50 of 43 nM.
Molecule CCOC(=O)N1CCN(C(=O)[C@H](Cc2ccc(P(=O)(O)O)cc2)NC(=O)c2csc(-c3ccccc3)n2)CC1 [Example 13, 4-[(S)-2-[(2-Phenyl-thiazole-4-carbonyl)-amino]-3-(4-phosphono-phenyl)-propionyl]-piperazine-1-carboxylic acid ethyl ester] has an IC50 of 2 nM.
With CCCCOC(=O)N1CCN(C(=O)[C@H](CCC(=O)O)NC(=O)c2nc(-c3ccccc3)sc2/C=C/COC)CC1 [Example 21, 4-((S)-4-Carboxy-2-{[5-((E)-3-methoxy-propenyl)-2-phenyl-thiazole-4-carbonyl]-amino}-butyryl)-piperazine-1-carboxylic acid butyl ester] the IC50 was 19 nM.
With CCCCOC(=O)N1CCN(C(=O)[C@H](CCC(=O)OC(C)(C)C)NC(=O)c2nc(-c3ccccc3)sc2Br)CC1 [Example 14, 4-{(S)-2-[(5-Bromo-2-phenyl-thiazole-4-carbonyl)-amino]-4-tert-butoxycarbonyl-butyryl}-piperazine-1-carboxylic acid butyl ester] the IC50 was 1220 nM.
CCCCOC(=O)N1CCN(C(=O)[C@H](CCC(=O)O)NC(=O)c2nc(-c3ccccc3)sc2N2CC[C@H](OC)C2)CC1 [Example 25, 4-((S)-4-Carboxy-2-{[5-((S)-3-methoxy-pyrrolidin-1-yl)-2-phenyl-thiazole-4-carbonyl]-amino}-butyryl)-piperazine-1-carboxylic acid butyl ester] was tested, and the IC50 was 3 nM.
With CCCCOC(=O)N1CCN(C(=O)CNC(=O)c2nc(-c3ccccc3)sc2CCC(=O)OCC)CC1 [Example 32, 4-(2-{[5-(2-Ethoxycarbonyl-ethyl)-2-phenyl-thiazole-4-carbonyl]-amino}-acetyl)-piperazine-1-carboxylic acid butyl ester] the IC50 was 157 nM.
With CCCCOC(=O)N1CCN(C(=O)CNC(=O)c2nc(-c3ccccc3)c(CCC(=O)O)s2)CC1 [Example 55, 4-(2-{[5-(2-Carboxy-ethyl)-4-phenyl-thiazole-2-carbonyl]-amino}-acetyl)-piperazine-1-carboxylic acid butyl ester] the IC50 was 314 nM.
Molecule CCCCOC(=O)N1CCN(C(=O)[C@H](CCC(=O)O)NC(=O)c2csc(-c3ccccc3)n2)CC1 [Example 7, 4-{(S)-4-Carboxy-2-[(2-phenyl-thiazole-4-carbonyl)-amino]-butyryl}-piperazine-1-carboxylic acid butyl ester] has an IC50 of 16 nM.
CCCCOC(=O)N1CCN(C(=O)CNC(=O)c2nc(-c3ccccc3)c(/C=C/COC)s2)CC1 [Example 51, 4-(2-{[5-((E)-3-Methoxy-propenyl)-4-phenyl-thiazole-2-carbonyl]-amino}-acetyl)-piperazine-1-carboxylic acid butyl ester] was tested, and the IC50 was 380 nM.
Work on CCCCOC(=O)N1CCN(C(=O)CNC(=O)c2nc(-c3ccccc3)sc2-c2cccc(F)c2)CC1 [Example 29, 4-(2-{[5-(3-Fluoro-phenyl)-2-phenyl-thiazole-4-carbonyl]-amino}-acetyl)-piperazine-1-carboxylic acid butyl ester] yielded an IC50 of 525 nM.
For CCCCOC(=O)N1CCN(C(=O)[C@H](CCC(=O)O)NC(=O)c2nc(-c3ccccc3)sc2Br)CC1 [Example 15, 4-{(S)-2-[(5-Bromo-2-phenyl-thiazole-4-carbonyl)-amino]-4-carboxy-butyryl}-piperazine-1-carboxylic acid butyl ester], the IC50 was 41 nM.
CCOC(=O)N1CCN(C(=O)[C@H](Cc2ccc(P(=O)(OCC)OCC)cc2)NC(=O)c2csc(-c3ccccc3)n2)CC1 [Example 12, 4-{(S)-3-[4-(Diethoxy-phosphoryl)-phenyl]-2-[(2-phenyl-thiazole-4-carbonyl)-amino]-propionyl}-piperazine-1-carboxylic acid ethyl ester] showed an IC50 of 4940 nM.
With CCCCOC(=O)N1CCN(C(=O)[C@H](CP(=O)(OCC)OCC)NC(=O)c2nc(-c3ccccc3)sc2-c2ccccc2)CC1 [Example 42, 4-{(R)-3-(Diethoxy-phosphoryl)-2-[(2,5-diphenyl-thiazole-4-carbonyl)-amino]-propionyl}-piperazine-1-carboxylic acid butyl ester] the IC50 was 2190 nM.
CCCCOC(=O)N1CCN(C(=O)CNC(=O)c2nc(-c3ccccc3)sc2NCCCO)CC1 [Example 27, 4-(2-{[5-(3-Hydroxy-propylamino)-2-phenyl-thiazole-4-carbonyl]-amino}-acetyl)-piperazine-1-carboxylic acid butyl ester] was tested, and the IC50 was 34 nM.
Molecule CCCCOC(=O)N1CCN(C(=O)CNC(=O)c2nc(-c3ccccc3)sc2CCC(=O)O)CC1 [Example 33, 4-(2-{[5-(2-Carboxy-ethyl)-2-phenyl-thiazole-4-carbonyl]-amino}-acetyl)-piperazine-1-carboxylic acid butyl ester] has an IC50 of 31 nM.
CCCCOC(=O)N1CCN(C(=O)[C@H](CP(=O)(OCOC(=O)OCC)OCOC(=O)OCC)NC(=O)c2csc(-c3ccccc3)n2)CC1 [Example 59, 4-{(R)-3-[Bis-(ethoxycarbonyloxymethoxy)-phosphoryl]-2-[(2-phenyl-thiazole-4-carbonyl)-amino]-propionyl}-piperazine-1-carboxylic acid butyl ester] showed an IC50 of 15 nM.
With CCCCOC(=O)N1CCN(C(=O)[C@H](CCC(=O)O)NC(=O)c2nc(-c3ccccc3)c(Br)s2)CC1 [Example 56, 4-{(S)-2-[(5-Bromo-4-phenyl-thiazole-2-carbonyl)-amino]-4-carboxy-butyryl}-piperazine-1-carboxylic acid butyl ester] the IC50 was 45 nM.
With CCCCOC(=O)N1CCN(C(=O)[C@H](CP(=O)(O)O)NC(=O)c2nc(-c3ccccc3)c(Br)s2)CC1 [Example 48, 4-{(R)-2-[(5-Bromo-4-phenyl-thiazole-2-carbonyl)-amino]-3-phosphono-propionyl}-piperazine-1-carboxylic acid butyl ester] the IC50 was 6 nM.
CCCCOC(=O)N1CCN(C(=O)[C@H](CCC(=O)O)NC(=O)c2nc(-c3ccccc3)sc2CCC(=O)O)CC1 [Example 20, 4-((S)-4-Carboxy-2-{[5-(2-carboxy-ethyl)-2-phenyl-thiazole-4-carbonyl]-amino}-butyryl)-piperazine-1-carboxylic acid butyl ester] gave an IC50 of 13 nM.
For CCCCOC(=O)N1CCN(C(=O)CNC(=O)c2nc(-c3ccccc3)sc2C=CCOC)CC1 [Example 34, 4-(2-{[5-(3-Methoxy-propenyl)-2-phenyl-thiazole-4-carbonyl]-amino}-acetyl)-piperazine-1-carboxylic acid butyl ester], the IC50 was 85 nM.
With CCCCOC(=O)N1CCN(C(=O)[C@H](CO)NC(=O)c2nc(-c3ccccc3)sc2Br)CC1 [Example 37, 4-{(S)-2-[(5-Bromo-2-phenyl-thiazole-4-carbonyl)-amino]-3-hydroxy-propionyl}-piperazine-1-carboxylic acid butyl ester] the IC50 was 696 nM.
In the case of CCCCOC(=O)N1CCN(C(=O)[C@H](CP(=O)(OCC)OCC)NC(=O)c2csc(-c3ccccc3)n2)CC1 [Example 8, 4-{(R)-3-(Diethoxy-phosphoryl)-2-[(2-phenyl-thiazole-4-carbonyl)-amino]-propionyl}-piperazine-1-carboxylic acid butyl ester], the IC50 is reported as 502 nM.
